Source: paper PMC9308932, “Human liver microsomes study on the inhibitory effect of plantainoside D on the activity of cytochrome P450 activity” (BMC Complementary Medicine and Therapies, 2022)

Experiments:
Type in all cases: in vitro ADME
CYP2A6 = biological target: T1, CYP2A6 (Homo sapiens, UniProt P11509); assay: CYP2A6 activity (coumarin 7-hydroxylation) in human liver microsomes; conditions: 0-100 μM plantainoside D
T1 construct: Pooled human liver microsomes were obtained from BD Biosciences Discovery Labware; tissue BD Biosciences Discovery Labware; host or cells: pooled human liver microsomes
T1 sequence (P11509 1-494): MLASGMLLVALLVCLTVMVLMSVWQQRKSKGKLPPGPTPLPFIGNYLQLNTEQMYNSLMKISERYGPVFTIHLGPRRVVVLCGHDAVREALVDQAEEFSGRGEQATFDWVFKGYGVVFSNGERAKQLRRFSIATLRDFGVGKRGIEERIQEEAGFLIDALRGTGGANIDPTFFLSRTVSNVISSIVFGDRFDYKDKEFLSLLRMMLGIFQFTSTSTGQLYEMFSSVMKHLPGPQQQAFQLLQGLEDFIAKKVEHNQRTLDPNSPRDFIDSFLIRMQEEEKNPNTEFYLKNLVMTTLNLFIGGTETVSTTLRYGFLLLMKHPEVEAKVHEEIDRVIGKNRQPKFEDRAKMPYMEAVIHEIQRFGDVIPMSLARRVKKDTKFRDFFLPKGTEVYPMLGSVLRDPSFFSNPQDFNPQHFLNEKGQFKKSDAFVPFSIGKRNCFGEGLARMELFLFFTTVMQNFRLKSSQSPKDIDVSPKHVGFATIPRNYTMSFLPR
Protocol: (§1) The activity of P450s was evaluated by corresponding metabolites using HPLC with Agilent 1260 Series Rapid Resolution HPLC. The reaction system was prepared with the following compositions: HLMs with certain protein concentrations, specific substrates of different isoenzymes, PBS buffer solution, plantainoside D or specific inhibitors, and an NADPH generating system as previously reported. Besides dextromethorphan and quinidine were dissolved in water, other substrated, inhibitors, and plantainoside D were dissolved in methanol with a final concentration of 1% (v/v). Before initiating the reaction, there was a preincubation of 3 min followed by the addition of the NADPH-generating system. [table] [table] […] Furthermore, the inhibition model of P450 isoenzymes was estimated in the presence of various concentrations of corresponding substrates and fitting with Lineweaver–Burk and Dixon plots, and the inhibition constant was calculated by the following equations: […]

CYP2B6 = biological target: T2, CYP2B6 (Homo sapiens, UniProt P20813); assay: CYP2B6 activity (bupropion hydroxylation) in human liver microsomes; conditions: 0-100 μM plantainoside D
T2 construct: Pooled human liver microsomes were obtained from BD Biosciences Discovery Labware; tissue BD Biosciences Discovery Labware; host or cells: pooled human liver microsomes
T2 sequence (P20813 1-491): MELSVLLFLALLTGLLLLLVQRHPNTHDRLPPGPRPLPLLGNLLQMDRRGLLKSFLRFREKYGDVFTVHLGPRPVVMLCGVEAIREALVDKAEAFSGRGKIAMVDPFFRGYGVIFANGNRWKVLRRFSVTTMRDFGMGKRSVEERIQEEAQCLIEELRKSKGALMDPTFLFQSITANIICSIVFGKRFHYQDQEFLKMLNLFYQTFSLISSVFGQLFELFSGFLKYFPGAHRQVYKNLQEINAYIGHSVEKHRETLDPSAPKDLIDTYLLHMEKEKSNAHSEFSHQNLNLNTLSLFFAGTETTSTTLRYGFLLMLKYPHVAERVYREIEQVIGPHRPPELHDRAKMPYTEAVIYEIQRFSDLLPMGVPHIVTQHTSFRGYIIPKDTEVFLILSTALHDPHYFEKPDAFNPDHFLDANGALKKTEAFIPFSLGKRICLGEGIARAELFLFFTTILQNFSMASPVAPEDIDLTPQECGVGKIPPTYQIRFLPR
Protocol: as §1

CYP3A [1] = biological target: T3, CYP3A (Homo sapiens, UniProt P08684); assay: Time-dependent inhibition of CYP3A in human liver microsomes
T3 sequence (P08684 2-503): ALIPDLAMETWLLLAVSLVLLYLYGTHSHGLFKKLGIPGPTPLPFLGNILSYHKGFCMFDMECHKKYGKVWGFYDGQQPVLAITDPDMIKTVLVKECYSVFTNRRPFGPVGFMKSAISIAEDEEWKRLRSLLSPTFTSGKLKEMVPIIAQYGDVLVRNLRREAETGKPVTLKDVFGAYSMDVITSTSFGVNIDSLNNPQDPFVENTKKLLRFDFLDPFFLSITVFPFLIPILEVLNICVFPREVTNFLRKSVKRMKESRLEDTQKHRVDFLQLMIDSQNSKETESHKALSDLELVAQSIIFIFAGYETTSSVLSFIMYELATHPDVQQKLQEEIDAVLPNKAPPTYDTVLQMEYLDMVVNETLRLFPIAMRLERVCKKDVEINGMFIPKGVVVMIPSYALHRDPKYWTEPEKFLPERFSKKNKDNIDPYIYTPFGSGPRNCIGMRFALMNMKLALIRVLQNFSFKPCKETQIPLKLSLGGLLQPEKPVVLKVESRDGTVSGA
Protocol: A total of 1 mg/mL HLMs were firstly incubated with 20 μM plantainoside D and the NADPH-generating system for 30 min. Then, incubation with 20 μL aliquot was carried out for 0, 5, 10, 15, and 30 min in the presence of substrates concentration close to Km. Additionally, the values of KI and Kinact were evaluated in the presence of substrates approximate to fourfold Km according to the equation: 1/Kobs=KI/Kinact×1/[I]+1/Kinact .

CYP2D6 [2] = biological target: T4, CYP2D6 (Homo sapiens, UniProt P10635); assay: Concentration-dependent inhibition of CYP2D6 (dextromethorphan O-demethylation) in human liver microsomes
T4 construct: Pooled human liver microsomes were obtained from BD Biosciences Discovery Labware; tissue BD Biosciences Discovery Labware; host or cells: pooled human liver microsomes
T4 sequence (P10635 whole entry): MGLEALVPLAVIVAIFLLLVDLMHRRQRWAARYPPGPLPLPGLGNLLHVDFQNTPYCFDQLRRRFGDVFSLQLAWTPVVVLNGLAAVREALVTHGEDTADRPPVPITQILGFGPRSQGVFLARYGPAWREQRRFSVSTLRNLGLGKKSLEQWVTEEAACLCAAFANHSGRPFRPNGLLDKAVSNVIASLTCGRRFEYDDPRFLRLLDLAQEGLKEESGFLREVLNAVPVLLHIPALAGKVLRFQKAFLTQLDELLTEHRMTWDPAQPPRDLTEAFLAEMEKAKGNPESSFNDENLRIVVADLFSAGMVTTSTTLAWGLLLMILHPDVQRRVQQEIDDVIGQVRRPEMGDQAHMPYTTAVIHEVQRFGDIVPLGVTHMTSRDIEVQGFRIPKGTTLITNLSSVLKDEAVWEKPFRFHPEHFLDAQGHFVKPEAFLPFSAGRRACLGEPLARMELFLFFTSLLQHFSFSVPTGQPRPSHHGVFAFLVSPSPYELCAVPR
Protocol: (§2) The activity of P450s was evaluated by corresponding metabolites using HPLC with Agilent 1260 Series Rapid Resolution HPLC. The reaction system was prepared with the following compositions: HLMs with certain protein concentrations, specific substrates of different isoenzymes, PBS buffer solution, plantainoside D or specific inhibitors, and an NADPH generating system as previously reported. Besides dextromethorphan and quinidine were dissolved in water, other substrated, inhibitors, and plantainoside D were dissolved in methanol with a final concentration of 1% (v/v). Before initiating the reaction, there was a preincubation of 3 min followed by the addition of the NADPH-generating system.
(§3) The effect of plantainoside D was primarily evaluated with the concentration of 0, 2.5, 5, 10, 25, 50, and 100 μM and the values of IC50 was evaluated. Furthermore, the inhibition model of P450 isoenzymes was estimated in the presence of various concentrations of corresponding substrates and fitting with Lineweaver–Burk and Dixon plots, and the inhibition constant was calculated by the following equations:
(§4) v=VmaxS/Km1+I/Ki+S for competitive inhibition;
(§5) v=(VmaxS)/[Km+S(1+I/KiKI)] for non-competitive inhibition.
(§6) where I is the concentration of plantainoside D, Ki is the inhibition constant, S is the concentration of the substrate, and Km is the substrate concentration at half the maximum velocity (Vmax) of the reaction.

CYP1A2 [3] = biological target: T5, CYP1A2 (Homo sapiens, UniProt P05177); assay: Concentration-dependent inhibition of CYP1A2 (phenacetin O-deethylation) in human liver microsomes
T5 construct: Pooled human liver microsomes were obtained from BD Biosciences Discovery Labware; tissue BD Biosciences Discovery Labware; host or cells: pooled human liver microsomes
T5 sequence (P05177 1-516): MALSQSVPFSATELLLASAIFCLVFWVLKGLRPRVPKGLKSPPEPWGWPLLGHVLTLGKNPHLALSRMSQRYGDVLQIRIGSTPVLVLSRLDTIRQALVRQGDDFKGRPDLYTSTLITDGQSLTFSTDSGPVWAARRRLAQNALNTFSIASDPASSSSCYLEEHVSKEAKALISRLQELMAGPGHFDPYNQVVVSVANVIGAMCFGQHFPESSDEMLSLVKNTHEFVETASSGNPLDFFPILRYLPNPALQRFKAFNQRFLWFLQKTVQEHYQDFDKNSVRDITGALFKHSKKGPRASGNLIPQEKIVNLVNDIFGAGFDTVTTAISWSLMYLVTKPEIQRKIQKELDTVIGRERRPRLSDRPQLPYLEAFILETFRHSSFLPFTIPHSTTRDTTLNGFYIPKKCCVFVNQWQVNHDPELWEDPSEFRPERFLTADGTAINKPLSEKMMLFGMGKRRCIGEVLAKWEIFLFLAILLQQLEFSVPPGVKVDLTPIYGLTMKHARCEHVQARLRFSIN
Protocol: as §2, §3, §4, §5, §6

CYP2C8 = biological target: T6, CYP2C8 (Homo sapiens, UniProt P10632); assay: CYP2C8 activity (paclitaxel 6α-hydroxylation) in human liver microsomes; conditions: 0-100 μM plantainoside D
T6 construct: Pooled human liver microsomes were obtained from BD Biosciences Discovery Labware; tissue BD Biosciences Discovery Labware; host or cells: pooled human liver microsomes
T6 sequence (P10632 1-490): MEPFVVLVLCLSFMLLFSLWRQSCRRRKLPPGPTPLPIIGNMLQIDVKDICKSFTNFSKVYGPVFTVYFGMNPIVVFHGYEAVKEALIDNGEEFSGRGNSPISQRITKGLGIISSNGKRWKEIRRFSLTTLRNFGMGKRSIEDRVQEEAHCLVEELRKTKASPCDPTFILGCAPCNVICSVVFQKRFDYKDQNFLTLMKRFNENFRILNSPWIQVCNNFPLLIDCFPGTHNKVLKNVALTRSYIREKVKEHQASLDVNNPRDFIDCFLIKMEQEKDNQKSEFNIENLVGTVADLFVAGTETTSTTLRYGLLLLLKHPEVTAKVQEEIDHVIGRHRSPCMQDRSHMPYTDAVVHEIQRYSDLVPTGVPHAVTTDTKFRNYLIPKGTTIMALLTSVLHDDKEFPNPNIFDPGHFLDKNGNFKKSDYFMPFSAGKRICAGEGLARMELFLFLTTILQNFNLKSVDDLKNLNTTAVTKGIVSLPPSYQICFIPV
Protocol: as §1

CYP2C19 = biological target: T7, CYP2C19 (Homo sapiens, UniProt P33261); assay: CYP2C19 activity (S-mephenytoin 4-hydroxylation) in human liver microsomes; conditions: 0-100 μM plantainoside D
T7 construct: Pooled human liver microsomes were obtained from BD Biosciences Discovery Labware; tissue BD Biosciences Discovery Labware; host or cells: pooled human liver microsomes
T7 sequence (P33261 whole entry): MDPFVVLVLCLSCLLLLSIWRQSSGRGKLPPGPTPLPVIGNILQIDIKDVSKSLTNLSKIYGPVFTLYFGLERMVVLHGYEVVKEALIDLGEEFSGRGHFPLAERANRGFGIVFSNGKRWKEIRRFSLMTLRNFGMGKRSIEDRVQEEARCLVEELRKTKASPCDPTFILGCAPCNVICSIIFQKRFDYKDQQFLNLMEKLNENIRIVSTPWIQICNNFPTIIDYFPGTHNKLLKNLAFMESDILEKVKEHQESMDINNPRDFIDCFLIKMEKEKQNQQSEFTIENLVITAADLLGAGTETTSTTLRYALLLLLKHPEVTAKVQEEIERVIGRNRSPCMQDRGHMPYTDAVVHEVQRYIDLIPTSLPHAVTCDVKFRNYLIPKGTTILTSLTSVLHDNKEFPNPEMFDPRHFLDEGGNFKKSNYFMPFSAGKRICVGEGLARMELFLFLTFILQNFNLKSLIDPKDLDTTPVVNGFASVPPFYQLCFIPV
Protocol: as §1

CYP1A2 [4] = biological target: T5, CYP1A2; assay: Time-dependent inhibition of CYP1A2 in human liver microsomes; conditions: 20 μM plantainoside D; incubation 0-30 min; 1 mg/mL HLMs
Protocol: (§7) A total of 1 mg/mL HLMs were firstly incubated with 20 μM plantainoside D and the NADPH-generating system for 30 min. Then, incubation with 20 μL aliquot was carried out for 0, 5, 10, 15, and 30 min in the presence of substrates concentration close to Km.

CYP2C9 = biological target: T8, CYP2C9 (Homo sapiens, UniProt P11712); assay: CYP2C9 activity (diclofenac 4'-hydroxylation) in human liver microsomes; conditions: 0-100 μM plantainoside D
T8 construct: Pooled human liver microsomes were obtained from BD Biosciences Discovery Labware; tissue BD Biosciences Discovery Labware; host or cells: pooled human liver microsomes
T8 sequence (P11712 whole entry): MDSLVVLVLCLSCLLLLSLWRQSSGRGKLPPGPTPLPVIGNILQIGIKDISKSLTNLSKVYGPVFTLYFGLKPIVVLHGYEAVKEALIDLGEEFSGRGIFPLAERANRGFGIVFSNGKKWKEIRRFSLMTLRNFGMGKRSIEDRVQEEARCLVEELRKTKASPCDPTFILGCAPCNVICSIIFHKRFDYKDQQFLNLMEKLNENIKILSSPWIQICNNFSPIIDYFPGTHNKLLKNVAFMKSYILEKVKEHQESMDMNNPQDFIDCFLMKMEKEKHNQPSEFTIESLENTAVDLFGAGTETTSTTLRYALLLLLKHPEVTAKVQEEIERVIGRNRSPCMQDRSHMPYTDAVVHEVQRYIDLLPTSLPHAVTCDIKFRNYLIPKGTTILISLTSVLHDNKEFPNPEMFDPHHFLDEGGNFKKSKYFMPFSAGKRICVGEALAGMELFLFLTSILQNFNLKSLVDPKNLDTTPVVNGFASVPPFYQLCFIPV
Protocol: as §1

CYP2D6 [5] = biological target: T4, CYP2D6; assay: Time-dependent inhibition of CYP2D6 in human liver microsomes; conditions: 20 μM plantainoside D; incubation 0-30 min; 1 mg/mL HLMs
Protocol: as §7

CYP2E1 = biological target: T9, CYP2E1 (Homo sapiens, UniProt P05181); assay: CYP2E1 activity (chlorzoxazone 6-hydroxylation) in human liver microsomes; conditions: 0-100 μM plantainoside D
T9 construct: Pooled human liver microsomes were obtained from BD Biosciences Discovery Labware; tissue BD Biosciences Discovery Labware; host or cells: pooled human liver microsomes
T9 sequence (P05181 whole entry): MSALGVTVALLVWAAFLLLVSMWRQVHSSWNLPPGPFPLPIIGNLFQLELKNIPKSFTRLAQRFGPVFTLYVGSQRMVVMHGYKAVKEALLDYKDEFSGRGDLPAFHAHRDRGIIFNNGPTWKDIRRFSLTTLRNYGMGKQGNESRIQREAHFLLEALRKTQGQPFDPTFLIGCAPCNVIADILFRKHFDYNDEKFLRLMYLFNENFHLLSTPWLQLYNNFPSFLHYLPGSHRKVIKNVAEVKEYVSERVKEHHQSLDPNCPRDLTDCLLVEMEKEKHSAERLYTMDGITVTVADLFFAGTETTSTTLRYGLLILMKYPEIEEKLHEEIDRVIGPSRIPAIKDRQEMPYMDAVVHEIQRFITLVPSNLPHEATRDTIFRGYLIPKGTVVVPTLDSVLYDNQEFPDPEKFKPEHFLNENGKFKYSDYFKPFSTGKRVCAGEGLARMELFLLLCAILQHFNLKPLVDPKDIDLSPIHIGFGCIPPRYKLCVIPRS
Protocol: as §1

CYP3A [6] = biological target: T3, CYP3A; assay: Concentration-dependent inhibition of CYP3A (testosterone 6β-hydroxylation) in human liver microsomes
Protocol: as §2, §3, §4, §5, §6

[7] = Lineweaver-Burk plot, constant Vmax
[8] = competitive model, Dixon plot, human liver microsomes
[9] = human, human liver microsomes, probe testosterone (6β-hydroxylation)

Q: Which “Effect on CYP2A6 activity” value (CYP2A6) does the source give for `O=C(/C=C/c1ccc(O)c(O)c1)OC[C@H]1O[C@@H](OCCc2ccc(O)c(O)c2)[C@H](O)[C@@H](O[C@@H]2O[C@H](CO)[C@@H](O)[C@H](O)[C@H]2O)[C@@H]1O` [plantainoside D, Plantainoside D] here?
A: The value was “no changes”.

Q: What about the “Effect on CYP2B6 activity” value (CYP2B6) of the same molecule?
A: The value was “no changes”.

Q: What about the “Time dependence of CYP3A inhibition” value (CYP3A [1]; 20 μM plantainoside D, incubation 0-30 min, 1 mg/mL HLMs) of the same molecule?
A: The value was “enhanced with the increasing incubation time”.

Q: And the kinact (CYP3A [1]; human liver microsomes, 0, 2, 5, 10, 20, 50 μM plantainoside D, substrate about fourfold Km)?
A: Its kinact is 0.00065 s⁻¹.

Q: What about the “Inhibition model of CYP2D6” value (CYP2D6 [2]; [7]) of the same molecule?
A: The value was “competitive”.

Q: And the Ki (CYP2D6 [2]; [8])?
A: Its Ki is 4.54 µM.

Q: And the IC50 (CYP2D6 [2]; human liver microsomes, 0-100 μM plantainoside D, dextromethorphan substrate)?
A: Its IC50 is 8.39 µM.

Q: And the “Inhibition model of CYP1A2” value (CYP1A2 [3]; [7])?
A: Its value is “competitive”.

Q: And the Ki (CYP1A2 [3]; [8])?
A: The Ki was 6.26 µM.

Q: And the IC50 (CYP1A2 [3]; human liver microsomes, 0-100 μM plantainoside D, phenacetin substrate)?
A: The IC50 was 12.8 µM.

Q: What about the “Effect on CYP2C8 activity” value (CYP2C8) of the same molecule?
A: Its value is “no changes”.

Q: What about the “Effect on CYP2C19 activity” value (CYP2C19) of the same molecule?
A: The value was “no changes”.

Q: And the “Time dependence of CYP1A2 inhibition” value (CYP1A2 [4])?
A: Its value is “no significant changes with time”.

Q: What about the “Effect on CYP2C9 activity” value (CYP2C9) of the same molecule?
A: Its value is “no changes”.

Q: What about the “Time dependence of CYP2D6 inhibition” value (CYP2D6 [5]) of the same molecule?
A: Its value is “no significant changes with time”.

Q: And the “Effect on CYP2E1 activity” value (CYP2E1)?
A: Its value is “no changes”.

Q: What about the “Inhibition model of CYP3A” value (CYP3A [6]; Lineweaver-Burk plot, constant Km) of the same molecule?
A: Its value is “non-competitive”.

Q: What about the IC50 (CYP3A [6]; [9]) of the same molecule?
A: Its IC50 is 14.7 µM.

Q: And the Ki (CYP3A [6]; [9])?
A: The Ki was 7.16 µM.
